Here are results for 10 compounds from ChEMBL document CHEMBL1201862, “PubChem BioAssay data set” (2004).

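In this assay, cells in 96-well plates receive the compound at five concentrations for 48 hours. Endpoints are linearly interpolated between the surrounding concentrations. GI50 is the concentration that inhibits growth by half.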 Active and inactive are the calls of the source. Cut-off read from the data, not from the text of the source: active = GI50 up to about 1.1 µM and inactive = higher.

What all share (assay): growth of human tumour cells (NCI), 48 h
Test [1] deals with A549.
The test system of test [2] is ACHN.
Test [3] concerns COLO 205.
Test [4] concerns DU-145.
Test [5] deals with HCC 2998.
For test [6], the system named is HT-29.
The subject of test [7] is IGROV-1.
Test [8] deals with MDA-MB-231.
Test [9] has as its system Malme-3M.
In test [10] the test system is NCI-H226.
Test [11] deals with NCI/ADR-RES.
The subject of test [12] is OVCAR-3.
The test system of test [13] is OVCAR-4.
Test [14] has as its system SF-268.
Test [15] deals with SF-295.
The test system of test [16] is SK-MEL-5.
Test [17] concerns SNB-75.
Test [18] has as its system SR.
Test [19] concerns SW-620.
In test [20] the test system is TK-10.

Regarding `Cc1ccc(C2=Nn3c(nc4sc(C)c(C)c4c3=O)SC2)cc1`, the GI50 in [1], in test [2], in [3], in test [4], in [5] and in test [6] was > 100 µM (inactive) each time. Besides, the GI50 in test [7], in test [8], in test [9], in test [10], in test [11] and in [12] was > 100 µM (inactive) in each case. The GI50 is > 100 µM (inactive) in test [13]; > 100 µM (inactive) in [14]; > 100 µM (inactive) in test [15]; > 100 µM (inactive) in test [16]; 56.4 µM (inactive) in test [17]; > 100 µM (inactive) in [18]. Also, the results for the GI50 in [19] and in test [20] were > 100 µM (inactive) and 23.3 µM (inactive), respectively.

With `O=C1c2ccccc2C(=O)c2c1oc1cc(O)c(Cl)cc21`, the GI50 in test [1] is 3.01 µM (inactive); in test [2], 7 µM (inactive); in [3] it was 1.72 µM (inactive); in test [4], 4.89 µM (inactive); in test [5] it was 4.62 µM (inactive); in test [6] it was 1.95 µM (inactive). Moreover, the GI50 in [7] is 10.1 µM (inactive); in test [8], 12.8 µM (inactive); in [9], 1.07 µM (active); in test [10], 14 µM (inactive); in [11], 12.7 µM (inactive); in [12] it was 2.61 µM (inactive). Also, the GI50 is 8.18 µM (inactive) in [13]; 10.8 µM (inactive) in test [14]; 2.8 µM (inactive) in test [15]; 0.299 µM (active) in test [16]; 2.88 µM (inactive) in test [17]; 11.8 µM (inactive) in test [18]. For the same compound, the GI50 was 8.45 µM (inactive) in test [19] and 20.9 µM (inactive) in test [20].

For `CCC[N+](C)(C)CCCNC(=O)c1c(O)c2ccccc2[nH]c1=O`, the GI50 in test [1] was 46.3 µM (inactive); in test [2], > 100 µM (inactive); in [3], > 100 µM (inactive); in test [4], > 100 µM (inactive); in [5], > 100 µM (inactive); in test [6], > 100 µM (inactive). Moreover, the GI50 in test [7] was 89.1 µM (inactive); in test [8], > 100 µM (inactive); in test [9], 24.3 µM (inactive); in test [10], 77.1 µM (inactive); in test [11] it was > 100 µM (inactive); in test [12] it was > 100 µM (inactive). The GI50 in test [13] was > 100 µM (inactive); in test [14] it was > 100 µM (inactive); in [15], > 100 µM (inactive); in [16] it was 15.9 µM (inactive); in test [17], > 100 µM (inactive); in test [18] it was > 100 µM (inactive). Further, the GI50 in test [19] and in [20] was > 100 µM (inactive) throughout.

As to `Cc1ccc(NC(=O)CC(=O)n2nc(C)c(/N=N/c3cccc(C)c3)c2C)cc1`, the GI50 in test [1], in test [2], in test [3], in test [4], in test [5] and in test [6] was > 100 µM (inactive) throughout. Besides, the GI50 in [7], in test [8], in [9], in test [10], in test [11] and in [12] was > 100 µM (inactive) in each case. Further, the GI50 in test [13] was > 100 µM (inactive); in test [14] it was 69 µM (inactive); in test [15], > 100 µM (inactive); in test [16], > 100 µM (inactive); in [17], 18.1 µM (inactive); in test [18], 61.7 µM (inactive). Moreover, the GI50 in test [19] and in [20] was > 100 µM (inactive) in each case.

For `c1ccc2c(c1)/C(=N\NC1=NCCN1)c1nc3ccccc3nc1-2`, the GI50 in test [1] was 3.86 µM (inactive); in test [2] it was 3.21 µM (inactive); in test [3] it was 2.17 µM (inactive); in test [4], 10.6 µM (inactive); in test [5], 4.91 µM (inactive); in [6], 0.521 µM (active). For the same compound, the GI50 is 6.12 µM (inactive) in [7]; 10.5 µM (inactive) in [8]; 10.2 µM (inactive) in test [9]; 3.63 µM (inactive) in test [10]; 5.85 µM (inactive) in test [11]; 3.24 µM (inactive) in [12]. Also, the GI50 in test [13] is 17.6 µM (inactive); in test [14] it was 6.67 µM (inactive); in test [15] it was 2.45 µM (inactive); in test [16] it was 2.6 µM (inactive); in [17], 0.923 µM (active); in test [18], 3.98 µM (inactive). In addition, the values for the GI50 in test [19] and in [20] were 1.36 µM (inactive) and 14.1 µM (inactive), respectively.

With `CCOC(=O)/C=C(\C)Sc1cc(O)c2ccccc2c1O`, the GI50 was 28.1 µM (inactive) in [1]; 13.8 µM (inactive) in test [2]; 17.3 µM (inactive) in test [3]; 9.02 µM (inactive) in [4]; 8.97 µM (inactive) in [5]; 22.2 µM (inactive) in [6]. Moreover, the GI50 in [7] is 12 µM (inactive); in [8], 16.4 µM (inactive); in test [9], 9.66 µM (inactive); in test [10], 25.9 µM (inactive); in test [11], 25.3 µM (inactive); in [12] it was 28.6 µM (inactive). Moreover, the GI50 is 16.1 µM (inactive) in test [13]; 11 µM (inactive) in test [14]; 24.6 µM (inactive) in test [15]; 12.6 µM (inactive) in [16]; 10.1 µM (inactive) in test [17]; 7.62 µM (inactive) in test [18]. The GI50 in test [19] was 5.08 µM (inactive); in test [20] it was 23.7 µM (inactive).

As to `CC(C)/C=N\n1c(N)c(C#N)c(C#N)c1C(C)C`, the GI50 in [1] was 25.2 µM (inactive); in test [2], 20.3 µM (inactive); in test [3], 18.7 µM (inactive); in test [4] it was 35.6 µM (inactive); in test [5], 13.4 µM (inactive); in test [6] it was 33.3 µM (inactive). Further, the GI50 in test [7] is 18.3 µM (inactive); in [8], 19.4 µM (inactive); in test [9] it was 22.8 µM (inactive); in [10], 14.7 µM (inactive); in [11] it was 23.3 µM (inactive); in test [12], 11.7 µM (inactive). Moreover, the GI50 was 18.2 µM (inactive) in test [13]; 28.1 µM (inactive) in test [14]; 16.8 µM (inactive) in test [15]; 15.7 µM (inactive) in [16]; 4.67 µM (inactive) in test [17]; 0.951 µM (active) in test [18]. In addition, the GI50 in test [19] was 38.1 µM (inactive); in [20], 22.5 µM (inactive).

Turning to `Cn1/c(=N\N=C2\C=C3CCCCC3(C)CC2)sc2ccccc21` (stereo not given), the GI50 in test [1], in test [2], in [3], in test [4], in [5] and in test [6] was > 100 µM (inactive) in each case. Also, the GI50 is > 100 µM (inactive) in [7]; 71.8 µM (inactive) in test [8]; > 100 µM (inactive) in test [9]; > 100 µM (inactive) in test [10]; > 100 µM (inactive) in test [11]; > 100 µM (inactive) in test [12]. Besides, the GI50 is > 100 µM (inactive) in test [13]; > 100 µM (inactive) in test [14]; > 100 µM (inactive) in [15]; > 100 µM (inactive) in test [16]; 47.1 µM (inactive) in [17]; > 100 µM (inactive) in test [18]. For the same compound, the GI50 in test [19] and in test [20] was > 100 µM (inactive) in each case.

On to `Oc1c(O)c(Cc2ccccc2)c(Cc2ccccc2)c(Cc2ccccc2)c1Cc1ccccc1`, for which the GI50 in test [1], in test [2], in test [3], in test [4], in [5] and in test [6] was > 10 µM (inactive) throughout. Also, the GI50 in test [7], in test [8], in test [9], in test [10], in test [11] and in test [12] was > 10 µM (inactive) throughout. In addition, the GI50 in test [13], in [14], in test [15], in [16], in [17] and in [18] was > 10 µM (inactive) throughout. The GI50 in test [19] and in test [20] was > 10 µM (inactive) in each case.

As to `CSc1ccc(-c2cc(-c3nc4ccccc4[nH]3)no2)cc1`, the GI50 in test [1] is 23.6 µM (inactive); in test [2], 25.2 µM (inactive); in test [3], 23.9 µM (inactive); in test [4] it was 13.6 µM (inactive); in test [5], 16.2 µM (inactive); in test [6], 24.8 µM (inactive). The GI50 in [7] is 23.2 µM (inactive); in [8] it was 40.6 µM (inactive); in test [9], 35 µM (inactive); in [10], 40.5 µM (inactive); in test [11], 23.2 µM (inactive); in test [12], 22.1 µM (inactive). In addition, the GI50 in test [13] is 0.0562 µM (active); in test [14], 32 µM (inactive); in test [15], 28.7 µM (inactive); in [16] it was 15.9 µM (inactive); in test [17], 37.6 µM (inactive); in [18] it was 23.6 µM (inactive). Further, the GI50 in test [19] is 37 µM (inactive); in test [20], 36.6 µM (inactive).
